In article PMC3950631, “L-Phenylalanine Transport in Saccharomyces cerevisiae: Participation of GAP1, BAP2, and AGP1” (Journal of Amino Acids, 2014):
Read-outs that look alike come from different tables or passages of the source.

Key:
Experiment in all cases: inhibition of […] L-[…]-phenylalanine uptake into intact yeast cells
Type in all cases: cell-based
Bap2p = biological target: T1, Bap2p (Saccharomyces cerevisiae, UniProt P38084); details: read-out: Percentage inhibition / Y294Δagp1
T1 construct: gene BAP2; native chromosomal permease in intact yeast cells, full length, plasma membrane; assigned by gene disruption
T1 sequence (P38084 1-609): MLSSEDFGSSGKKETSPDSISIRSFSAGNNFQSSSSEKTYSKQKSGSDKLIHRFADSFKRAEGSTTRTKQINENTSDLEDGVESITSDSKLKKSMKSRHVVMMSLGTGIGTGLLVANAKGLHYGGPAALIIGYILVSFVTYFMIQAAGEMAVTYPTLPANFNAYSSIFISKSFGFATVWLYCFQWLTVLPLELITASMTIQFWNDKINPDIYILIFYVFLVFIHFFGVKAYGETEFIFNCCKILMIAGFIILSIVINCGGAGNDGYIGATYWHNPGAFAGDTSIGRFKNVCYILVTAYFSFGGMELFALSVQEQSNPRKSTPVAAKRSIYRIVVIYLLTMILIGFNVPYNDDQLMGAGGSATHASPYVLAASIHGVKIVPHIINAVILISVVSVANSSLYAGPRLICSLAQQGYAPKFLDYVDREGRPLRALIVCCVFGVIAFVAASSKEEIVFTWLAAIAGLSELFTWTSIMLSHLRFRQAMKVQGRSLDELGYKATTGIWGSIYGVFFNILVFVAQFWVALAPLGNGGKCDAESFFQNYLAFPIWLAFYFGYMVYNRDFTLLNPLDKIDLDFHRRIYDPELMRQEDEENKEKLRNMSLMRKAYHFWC

Gap1p = biological target: T2, Gap1p (Saccharomyces cerevisiae, UniProt P19145)
T2 construct: gene GAP1; native chromosomal permease in intact yeast cells, full length, plasma membrane; assigned by gene disruption and growth medium
T2 sequence (P19145 1-602): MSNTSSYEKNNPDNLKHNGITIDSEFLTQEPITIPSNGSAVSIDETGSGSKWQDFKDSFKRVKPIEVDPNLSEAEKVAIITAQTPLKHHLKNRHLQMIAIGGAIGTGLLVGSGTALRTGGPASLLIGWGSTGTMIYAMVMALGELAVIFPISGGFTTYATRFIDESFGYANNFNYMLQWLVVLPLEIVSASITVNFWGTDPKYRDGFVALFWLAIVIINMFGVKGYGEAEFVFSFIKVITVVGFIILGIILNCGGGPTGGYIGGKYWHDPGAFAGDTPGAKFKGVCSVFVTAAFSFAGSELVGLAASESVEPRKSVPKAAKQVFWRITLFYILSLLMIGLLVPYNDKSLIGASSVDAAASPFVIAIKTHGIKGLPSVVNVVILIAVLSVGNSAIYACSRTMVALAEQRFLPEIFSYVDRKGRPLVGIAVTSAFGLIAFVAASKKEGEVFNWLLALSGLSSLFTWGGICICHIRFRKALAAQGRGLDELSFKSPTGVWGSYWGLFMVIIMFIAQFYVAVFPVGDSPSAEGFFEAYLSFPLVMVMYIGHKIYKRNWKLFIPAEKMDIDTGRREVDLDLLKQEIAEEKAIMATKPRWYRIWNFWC

Agp1p = biological target: T3, Agp1p (Saccharomyces cerevisiae, UniProt P25376)
T3 construct: gene AGP1; native chromosomal permease in intact yeast cells, full length, plasma membrane; assigned by gene disruption
T3 sequence (P25376 1-633): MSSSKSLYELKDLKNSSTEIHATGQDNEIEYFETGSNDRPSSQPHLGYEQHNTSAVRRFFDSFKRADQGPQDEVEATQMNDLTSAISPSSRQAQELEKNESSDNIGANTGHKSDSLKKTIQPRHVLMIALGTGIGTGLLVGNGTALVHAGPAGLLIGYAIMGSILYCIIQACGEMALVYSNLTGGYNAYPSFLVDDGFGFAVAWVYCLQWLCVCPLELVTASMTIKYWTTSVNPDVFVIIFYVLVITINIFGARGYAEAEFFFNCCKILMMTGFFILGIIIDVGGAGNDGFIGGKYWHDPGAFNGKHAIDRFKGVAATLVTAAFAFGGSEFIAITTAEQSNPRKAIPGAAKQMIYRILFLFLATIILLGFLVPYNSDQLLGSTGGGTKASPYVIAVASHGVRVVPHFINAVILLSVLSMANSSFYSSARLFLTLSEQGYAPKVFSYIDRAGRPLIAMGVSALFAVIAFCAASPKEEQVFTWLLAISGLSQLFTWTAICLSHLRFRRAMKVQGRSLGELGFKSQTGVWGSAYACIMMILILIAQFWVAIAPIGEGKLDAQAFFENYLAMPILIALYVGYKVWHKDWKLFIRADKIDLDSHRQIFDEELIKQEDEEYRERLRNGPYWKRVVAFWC

[1] = read-out: Percentage inhibition / Y294Δbap2
[2] = read-out: Percentage inhibition / Y294Δbap2Δgap1 / MP

| inhibition at 200 µM (Bap2p) [%] | inhibition at 200 µM (Gap1p; [1]) [%] | SMILES | other results |
| --- | --- | --- | --- |
| 67 | – | NC(Cc1cccs1)C(=O)O (racemic) [β-2-thienylalanine] | – |
| – | 37 | NC(=O)C[C@H](N)C(=O)O [Asparagine] | inhibition at 200 µM (Agp1p; [2]): 48% |
| – | 71 | CC(C)[C@H](N)C(=O)O [Valine] | – |
| – | 86 | N[C@@H](Cc1c[nH]c2ccccc12)C(=O)O [Tryptophan] | inhibition at 200 µM (Agp1p; read-out: Percentage inhibition / Y294Δgap1 / MA): 18% |
| – | – | CC[C@H](C)[C@H](N)C(=O)O [Isoleucine] | inhibition at 200 µM (Gap1p; read-out: Percentage inhibition / Y294): 71% |
| 72 | 75 | CC(C)C[C@H](N)C(=O)O [Leucine] | inhibition at 200 µM (Agp1p; [2]): 34% |
| 48 | 42 | CC(CC(N)C(=O)O)C(F)(F)F (racemic) [DL-trifluoroleucine] | – |
| – | 40 | NC(=O)NCCC[C@H](N)C(=O)O [Citrulline] | – |

| SMILES | inhibition at 200 µM (Bap2p) [%] | inhibition at 200 µM (Gap1p; [1]) [%] | other results |
| --- | --- | --- | --- |
| N[C@@H](Cc1ccc(O)cc1)C(=O)O [Tyrosine] | – | 81 | – |
